Experiments:
IRP2−/− mice = assay: Hang-test of IRP2−/− mice on Tempo1-supplemented diet; type: in vivo
Excerpt: Mice: IRP2−/− mice were generated, propagated by breeding and genotyped as described in LaVaute et al., Nature Genetics, 27, 209-214 (2001). Mice used in this study have a 129S4/SvJae X C57B1/6 mixed background (specific proportions of each strain are not known). In experiments with mice of same genotype but on different diets siblings were used to minimize phenotypic variation due to differences in genetic background. Mice of different genotypes and on different diets were age and sex matched. All protocols were approved by the National Institute of Child Health and Human Development Animal Care and Use Committee, and met US National Institutes of Health guidelines for the humane care of animals. […]
(§1) Hang-test: In the hang-test, mice were allowed to grip a wire mesh that was then inverted. The length of time that a mouse could hang on to an inverted wire mesh before falling (up to a maximum of 60 seconds) was measured and recorded.
A stable nitroxide radical, Tempo1, was administered as a dietary supplement to knockout mice (IRP2−/−), and neurodegeneration was tested using the “hang test,” by which mice were allowed to grasp a wire mesh screen in an inverted position and the length of time that the mice could remain grasping the screen was measured (up to a maximum of 60 seconds). The hang test quantitatively assesses the progression of neurodegeneration in mice. […]

IRP1 = target: T1, IRP1 (Mus musculus, UniProt P28271); assay: IRE-binding activity of IRP1 in IRP2−/− embryonic fibroblasts (gel shift); type: cell-based; parameters: Embryonic fibroblasts of 13-day old embryos were isolated from wild type, IRP1−/− mice and IRP2−/− mice; endogenous in cells; host or cells: mouse embryonic fibroblasts (wild type and IRP2−/−); details: 0.3 and 1.0 mM, 16 h
T1 sequence (P28271 1-889): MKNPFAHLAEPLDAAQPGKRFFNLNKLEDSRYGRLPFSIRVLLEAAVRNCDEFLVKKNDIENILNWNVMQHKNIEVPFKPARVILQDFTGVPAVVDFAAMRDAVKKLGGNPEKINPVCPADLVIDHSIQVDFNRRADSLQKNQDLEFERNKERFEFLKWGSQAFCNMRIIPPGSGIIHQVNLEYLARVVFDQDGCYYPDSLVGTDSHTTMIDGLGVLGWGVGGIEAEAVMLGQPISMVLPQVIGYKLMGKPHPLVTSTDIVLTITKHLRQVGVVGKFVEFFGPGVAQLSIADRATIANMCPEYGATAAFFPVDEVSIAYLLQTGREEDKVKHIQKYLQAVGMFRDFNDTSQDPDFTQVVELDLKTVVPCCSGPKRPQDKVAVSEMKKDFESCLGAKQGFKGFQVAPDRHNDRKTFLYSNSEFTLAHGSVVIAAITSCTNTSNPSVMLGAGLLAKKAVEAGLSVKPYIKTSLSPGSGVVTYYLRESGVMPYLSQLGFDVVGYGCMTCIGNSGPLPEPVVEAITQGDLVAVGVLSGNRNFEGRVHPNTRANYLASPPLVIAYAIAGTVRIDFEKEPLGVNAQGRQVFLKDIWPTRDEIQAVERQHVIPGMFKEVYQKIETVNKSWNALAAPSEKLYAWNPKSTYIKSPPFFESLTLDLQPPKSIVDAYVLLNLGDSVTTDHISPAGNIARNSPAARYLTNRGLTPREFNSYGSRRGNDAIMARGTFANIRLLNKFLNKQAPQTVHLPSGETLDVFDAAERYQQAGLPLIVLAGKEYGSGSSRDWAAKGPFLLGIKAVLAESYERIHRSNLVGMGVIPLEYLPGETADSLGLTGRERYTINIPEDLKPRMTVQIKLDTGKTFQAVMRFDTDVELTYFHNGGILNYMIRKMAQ
Experimental: Cells: Embryonic fibroblasts of 13-day old embryos were isolated from wild type, IRP1−/− mice and IRP2−/− mice as described in LaVaute et al. supra. Myc-tagged HEK 293 Tet-on cell line, in which IRP2 expression was inducible, was prepared and cultured as described Bourdon et al., Blood Cells Mol Dis, 31, 247-255 (2003). Erythroblasts were harvested from bone marrow and purified as described in Cooperman et al., Blood, 106, 1084-1091 (2005).
RNA mobility shift assays: Gel retardation assays were performed as described in Meyron-Holtz et al., EMBO J, 23, 386-395 (2004). Tissue lysates were prepared in an anaerobic chamber as described above in oxygen-depleted lysis buffer containing 10 mM HEPES (pH 7.2), 3 mM MgC12, 40 mM KCl, 5% glycerol, 0.2% Nonidet P-40, 5 mM DTT, 1 mM AEBSF, 10 μg/ml. Leupeptin and complete TM EDTA free protease inhibitor cocktail (Roche Applied Science, Indiana). […]
To study the effect of Tempo1 on the IRE-binding activity of IRP1, IRP2−/− embryonic fibroblasts that were maintained in culture supplemented with 0, 0.3 and 1.0 mM Tempo1, with or without ferric ammonium citrate (FAC), for 16 h. […] Quantification was performed with the IQMac (IRP1 activity) or NIH Image (protein levels) program. Error bars represent the standard deviation calculated from the results of two different sets of experiments.

IRP1+/− IRP2−/− mice = assay: Hang-test of IRP1+/− IRP2−/− mice on Tempo1-supplemented diet; type: in vivo; details: FIG. 7c
Experimental: Diet: The mice were weaned 3-4 weeks after their birth. Immediately after weaning, mice were maintained on either a Tempo1-supplemented or control diet. In the Tempo1-supplemented diet, powdered Tempo1 was uniformly mixed with bacon-flavored mouse chow by a “cold press” technique (Bio-Serv, Frenchtown, N.J., USA) at a concentration of 10 mg/g of food. Bacon-flavored chow without Tempo1 was used as the control diet.
as §1
Hang-test results of WT, IRP2−/− and IRP1+/− IRP2−/− mice that indicated IRP1+/− IRP2−/− animals were more symptomatic than IRP2−/− animals. […] Error bars represent standard error of the mean. The curves were drawn by using the polynomial curve fit of the KaleidaGraph program.

## CC1(C)CC(O)CC(C)(C)N1[O] [Tempo1]
IRP2−/− mice; IRP2−/− mice on Tempo1 supplemented diet (10 mg/g of food) vs untreated knockout mice, max 60 seconds
  hang times: substantially increased
IRP2−/− mice; IRP2−/− mice on Tempo1 supplemented diet, hang test, FIG. 1c
  protection from progressive loss of neuromuscular capability: significantly (p value=0.009) protected
IRP1
  IRE-binding activity of IRP1: activate IRP1
IRP1+/− IRP2−/− mice
  prevention of disease progression (hang-test): did not significantly (p=0.559) prevent
